From patent publication US20180312493A1, “Antibiotic Compounds, Pharmaceutical Formulations Thereof And Methods And Uses Therefor” (Simon Fraser University, priority 2015, published 2018)
In brackets after ≈: the same amount, converted by molar mass. Values belong to the molecule of their own block, whether it stands above or below them.

Key:
[1] = test system: MRSA (ATCC BAA-1762); experiment: In vitro susceptibility, broth microdilution (MIC); assay type: cell-based, methicillin resistant S. aureus; settings: Staphylococcus aureus; MRSA ATCC BAA-1762; read-out: Antimicrobial activity (MIC) MRSA ATCC BAA1762
Source text: (§1) Epidemic methicillin resistant S. aureus (MRSA) strain sequenced at the Sanger Centre (MRSA252, NRS71) was obtained from NARSA (Network on Antimicrobial Resistance in S. aureus). Methicillin sensitive S. aureus (ATCC 29213 and 25923), methicillin resistant S. aureus (ATCC BAA-1762), and Salmonella typhimurium (ATCC BAA-185) were obtained from ATCC, The Global Bioresource Center. Acinetobacter baumannii (ATCC 19606 and ATCC 17978), Klebsiella pneumonia (C238), vancomycin resistant Enterococci #2 (2010A) (VRE#2), MRSA (USA400, MW2) and Pseudomonas aeruginosa (PA0-1) were obtained from the laboratory of Dr B. B. Finlay at the University of British Columbia (Vancouver, Canada).
(§2) The antimicrobial activities of PK inhibitor candidates were determined using the 96-well microtiter standard 2-fold serial broth microdilution method as described by CLSI (formerly NCCLS) with the various gram-positive and gram-negative bacteria species mentioned above. Bacteria from a single colony were grown, overnight in either BHI Broth (VRE), mueller hinton broth (S. aureus 29213; MRSA USA400, A. baumannii 19606, MRSA BAA-1762) or L-broth (P. aeruginosa, S. typhimurium, K. pneumonia and A. baumannii 17978). Each compound was prepared in DMSO with 2-fold serial dilutions to give a final concentration of, 0.031 to 64 μg/ml. 10 μl of the compound solution was then added, in duplicate, to either, 190 μl of cation adjusted mueller hinton broth (CAMHB) or 190 μl CAMHB containing ˜2.5×10^5 CFU/ml of bacteria (final compound concentration 0.031 to 64 μg/ml). Culture plates were incubated for 18-24 h at 37° C., and optical density at 600 nm (OD600) was measured using a Benchmark Plus™ microplate spectrophotometer (Bio-Rad™). The absorbance control values for the series containing CAMHB and inhibitor were subtracted as background from the corresponding infected wells. Minimal inhibitory concentration (MIC) was defined as the lowest concentration of test compound leading to complete inhibition of cell growth in relation to compound-free control wells as determined by optical density. Vancomycin, methicillin and ciprofloxicin were used as reference compounds. All assays were run in triplicate or duplicate. Experiments were replicated at least twice to verify reproducibility using the above conditions.

[2] = test system: S. aureus (ATCC29213); experiment: In vitro susceptibility, broth microdilution (MIC); assay type: cell-based; settings: Staphylococcus aureus; S. aureus ATCC29213; 18-24 h, 37 C; read-out: Antimicrobial activity (MIC) S. aureus ATCC29213
Procedure, shortened: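 CLSI 2-fold serial broth microdilution; K. pneumoniae C238 grown in L-broth, S. aureus ATCC 29213 in Mueller Hinton broth, plates incubated 18–24 h at 37 °C. MIC taken as lowest concentration giving complete growth inhibition by OD600 versus compound-free wells, background-subtracted.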

[3] = test system: VRE#2 (2010A); experiment: In vitro susceptibility, broth microdilution (MIC); assay type: cell-based, vancomycin resistant Enterococci; settings: VRE#2 (2010A); read-out: Antimicrobial activity (MIC) VRE#2
Source text: as §1, §2

[4] = target: T1, MRSA Pyk (Staphylococcus aureus, UniProt Q6GG09); experiment: MRSA pyruvate kinase (PK) activity, continuous LDH-coupled assay; assay type: biochemical, methicillin resistant S. aureus (MRSA252)
T1 construct: made in house; host or cells: E. coli BL-21 (DE3)
Procedure, shortened: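 Activity monitored continuously as absorbance change at 340 nm from NADH oxidation via coupled lactate dehydrogenase, reactions started with 15 nM recombinant His-tagged PK (MRSA or human isoform) and run at 30° C for up to 5 min. Ki derived by varying inhibitor (0-400 nM) and PEP (2-20 mM) at 2 mM ADP; IC50 by four-parameter fitting.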

MIC [1]: 2 µg/mL (≈ 6.29 µM)
MIC [2]: 4 µg/mL (≈ 12.6 µM)
Structure (SMILES): Cc1ccc2sc(NC(=O)Nc3ccc(Cl)cc3)nc2c1 [Compound 170, 1-(4-chlorophenyl)-3-(5-methylbenzo[d]thiazol-2-yl)urea]

MIC [3]: 64 µg/mL (≈ 144 µM)
MIC [1]: 0.5 µg/mL (≈ 1.13 µM)
MIC [2]: 8 µg/mL (≈ 18 µM)
Structure (SMILES): COC(=O)c1c(NS(=O)(=O)c2ccc(Cl)cc2)[nH]c2cc(Br)ccc12 [Compound 182, Methyl 6-bromo-2-((4-chlorophenyl)sulfonamido)-1H-indole-3-carboxylate]

Structure (SMILES): COCCN1CCN(CCNC(=O)c2c(-c3cc4cc(Cl)ccc4[nH]3)[nH]c3cc(Br)ccc23)CC1 [Compound 129, 6-bromo-5′-chloro-N-(2-(4-(2-methoxyethyl)piperazin-1-yl)ethyl)-1H,1′H-2,2′-biindole-3-carboxamide]
IC50 [4]: < 100 nM
MIC [3]: 16 µg/mL (≈ 28.6 µM)
MIC [1]: 16 µg/mL (≈ 28.6 µM)
MIC [2]: 16 µg/mL (≈ 28.6 µM)

MIC [1]: 0.5 µg/mL (≈ 1.31 µM)
MIC [2]: 0.5 µg/mL (≈ 1.31 µM)
Structure (SMILES): O=C(Nc1ccc(Cl)cc1)Nc1nc2cc(Br)ccc2s1 [Compound 141, 1-(5-bromobenzo[d]thiazol-2-yl)-3-(4-chlorophenyl)urea]

MIC [3]: 32 µg/mL (≈ 118 µM)
MIC [1]: 16 µg/mL (≈ 59 µM)
MIC [2]: 32 µg/mL (≈ 118 µM)
Structure (SMILES): CC(=O)Nc1nc2cc(Br)ccc2s1 [Compound 175, N-(5-bromobenzo[d]thiazol-2-yl)acetamide]

Structure (SMILES): Nc1c(/C=C/c2ccc(Cl)cc2)[nH]c2cc(Br)ccc12 [Compound 92, (E)-6-bromo-2-(4-chlorostyryl)-1H-indol-3-amine]
IC50 [4]: < 100 nM
MIC [3]: 32 µg/mL (≈ 92 µM)
MIC [2]: 64 µg/mL (≈ 184 µM)

Structure (SMILES): CC(C)(C)OC(=O)N1CCN(CCNC(=O)c2c(/C=C/c3ccc(Cl)cc3)[nH]c3cc(Br)ccc23)CC1 [Compound 33, (E)-tert-Butyl 4-(2-(6-bromo-2-(4-chlorostyryl)-1H-indole-3-carboxamido)ethyl)piperazine-1-carboxylate]
IC50 [4]: > 1000 nM
MIC [2]: > 64 µg/mL

Structure (SMILES): CN(C)C(=O)c1c(/C=C/c2ccc(Cl)nc2)[nH]c2cc(Br)ccc12 [Compound 36, (E)-6-bromo-2-(2-(6-chloropyridin-3-yl)vinyl)-N,N-dimethyl-1H-indole-3-carboxamide]
IC50 [4]: 100 to 1000 nM
MIC [2]: > 64 µg/mL

Structure (SMILES): CN(C)C(=O)c1c(CCc2ccc(Cl)cc2)[nH]c2ccccc12 [Compound 51, 2-(4-Chlorophenethyl)-N,N-dimethyl-1H-indole-3-carboxamide]
IC50 [4]: > 1000 nM
MIC [2]: > 64 µg/mL

Structure (SMILES): ON=C(c1c(/C=C/c2ccc(Cl)cc2)[nH]c2cc(Br)ccc12)C(F)(F)F (racemic) [Compound 19, 1-(6-Bromo-2-(4-chlorostyryl)-1H-indol-3-yl)-2,2,2-trifluoroethanone Oxime]
IC50 [4]: 100 to 1000 nM
MIC [2]: 0.5 µg/mL (≈ 1.13 µM)

Structure (SMILES): O=C(NCCN1CCN(C(=O)CO)CC1)c1c(/C=C/c2ccc(Cl)cc2)[nH]c2cc(Br)ccc12 [Compound 58, (E)-6-Bromo-2-(4-chlorostyryl)-N-(2-(4-(2-hydroxyacetyl)piperazin-1-yl)ethyl)-1H-indole-3-carboxamide]
IC50 [4]: < 100 nM
MIC [2]: > 64 µg/mL

Structure (SMILES): O=C(NCCC1CCOCC1)c1c(/C=C/c2ccc(Cl)cc2)[nH]c2cc(Br)ccc12 [Compound 42, (E)-6-Bromo-2-(4-chlorostyryl)-N-(2-(tetrahydro-2H-pyran-4-yl)ethyl)-1H-indole-3-carboxamide]
IC50 [4]: 100 to 1000 nM
MIC [2]: > 64 µg/mL

Structure (SMILES): OC(c1c(/C=C/c2ccc(Cl)cc2)[nH]c2cc(Br)ccc12)C(F)(F)F (stereo not drawn) [Compound 16, (E)-1-(6-Bromo-2-(4-chlorostyryl)-1H-indol-3-yl)-2,2,2-trifluoroethanol]
IC50 [4]: < 100 nM
MIC [2]: 1 µg/mL (≈ 2.32 µM)

Structure (SMILES): O=C(O)CNC(=O)c1c(/C=C/c2ccc(Cl)cc2)[nH]c2cc(Br)ccc12 [Compound 38, (E)-2-(6-Bromo-2-(4-chlorostyryl)-1H-indole-3-carboxamido)acetic Acid]
IC50 [4]: < 100 nM
MIC [2]: > 64 µg/mL

Structure (SMILES): CN(C)C(=O)c1cc(Br)cc2[nH]c(/C=C/c3ccc(Cl)cc3)cc12 [Compound 64, (E)-6-Bromo-2-(4-chlorostyryl)-N,N-dimethyl-1H-indole-4-carboxamide]
IC50 [4]: < 100 nM
MIC [2]: > 64 µg/mL

Structure (SMILES): O=C(NC(CO)CO)c1c(/C=C/c2ccc(Cl)cc2)[nH]c2cc(Br)ccc12 [Compound 32, (E)-6-Bromo-2-(4-chlorostyryl)-N-(1,3-dihydroxypropan-2-yl)-1H-indole-3-carboxamide]
IC50 [4]: < 100 nM
MIC [2]: > 64 µg/mL

Structure (SMILES): O=C(c1c(CCc2ccc(Cl)cc2)[nH]c2cc(Br)ccc12)C1CCOCC1 [Compound 4, (6-Bromo-2-(4-chlorophenethyl)-1H-indol-3-yl)(tetrahydro-2H-pyran-4-yl)methanone]
IC50 [4]: < 100 nM
MIC [2]: 8 µg/mL (≈ 17.9 µM)

Structure (SMILES): CCCC(=O)OC1CCN(CCNC(=O)c2c(/C=C/c3ccc(Cl)cc3)[nH]c3cc(Br)ccc23)CC1 [Compound 57, (E)-1-(2-(6-Bromo-2-(4-chlorostyryl)-1H-indole-3-carboxamido)ethyl)piperidin-4-yl Butyrate]
IC50 [4]: 100 to 1000 nM
MIC [3]: > 64 µg/mL
MIC [2]: > 64 µg/mL

Structure (SMILES): O=C(NCCN1CCN[C@H](C(=O)O)C1)c1c(-c2cc3cc(Cl)ccc3[nH]2)[nH]c2cc(Br)ccc12 [Compound 229, (S)-4-(2-(6-bromo-5′-chloro-1H,1′H-[2,2′-biindole]-3-carboxamido)ethyl)piperazine-2-carboxylic Acid]
IC50 [4]: < 100 nM
MIC [2]: > 64 µg/mL

Structure (SMILES): O=C(NCCN1CCC(O)CC1)c1c(/C=C/c2ccc(Cl)cc2)[nH]c2cc(Br)ccc12 [Compound 30, (E)-6-Bromo-2-(4-chlorostyryl)-N-(2-(4-hydroxypiperidin-1-yl)ethyl)-1 H-indole-3-carboxamide]
IC50 [4]: 100 to 1000 nM
MIC [2]: 16 µg/mL (≈ 31.8 µM)

Structure (SMILES): O=C(OCCN1CCOCC1)c1c(/C=C/c2ccc(Cl)cc2)[nH]c2cc(Br)ccc12 [Compound 62, 2-Morpholinoethyl (E)-6-bromo-2-(4-chlorostyryl)-1H-indole-3-carboxylate]
IC50 [4]: 100 to 1000 nM
MIC [2]: > 64 µg/mL

Structure (SMILES): CNC(=O)c1c(CCc2ccc(Cl)cc2)[nH]c2cc(Br)ccc12 [Compound 49, 6-Bromo-2-(4-chlorophenethyl)-N-methyl-1H-indole-3-carboxamide]
IC50 [4]: > 1000 nM
MIC [2]: > 64 µg/mL

Structure (SMILES): O=C(NCc1ccccc1)c1cc(Br)cc2[nH]c(/C=C/c3ccc(Cl)cc3)cc12 [Compound 63, (E)-N-Benzyl-6-bromo-2-(4-chlorostyryl)-1H-indole-4-carboxamide]
IC50 [4]: 100 to 1000 nM
MIC [2]: > 64 µg/mL

Structure (SMILES): O=C1NCCn2c(cc3cc(Cl)ccc32)-c2[nH]c3cc(Br)ccc3c21 [Compound 74, 12-Bromo-2-chloro-7,8-dihydro-6H-[1,4]diazocino[1,8-a:7,6-b′]diindol-9(14H)-one]
IC50 [4]: < 100 nM
MIC [3]: 64 µg/mL (≈ 154 µM)
MIC [2]: 32 µg/mL (≈ 77.2 µM)

Structure (SMILES): O=C(O)C(F)(F)C(F)(F)C(=O)c1c(/C=C/c2ccc(Cl)cc2)[nH]c2cc(Br)ccc12 [Compound 5, (E)-4-(6-Bromo-2-(4-chlorostyryl)-1H-indol-3-yl)-2,2,3,3-tetrafluoro-4-oxobutanoic Acid]
IC50 [4]: < 100 nM
MIC [2]: 32 µg/mL (≈ 63.4 µM)

Structure (SMILES): O=C(Nc1ccc(Cl)cc1)c1[nH]c2cc(Br)ccc2c1C(=O)NCCN1CCNCC1 [Compound 80, 6-Bromo-N2-(4-chlorophenyl)-N3-(2-(piperazin-1-yl)ethyl)-1H-indole-2,3-dicarboxamide]
IC50 [4]: < 100 nM
MIC [2]: > 64 µg/mL

Structure (SMILES): CN(C)CCOC(=O)c1c(C(=O)Nc2ccc(Cl)cc2)[nH]c2cc(Br)ccc12 [Compound 82, 2-(Dimethylamino)ethyl 6-bromo-2-((4-chlorophenyl)carbamoyl)-1 H-indole-3-carboxylate]
IC50 [4]: < 100 nM
MIC [2]: > 64 µg/mL

Structure (SMILES): FC(F)(F)c1c(CCc2ccc(Cl)cc2)[nH]c2cc(Br)ccc12 [Compound 66, 6-Bromo-2-(4-chlorophenethyl)-3-(trifluoromethyl)-1H-indole]
IC50 [4]: 100 to 1000 nM
MIC [2]: 2 µg/mL (≈ 4.97 µM)
